Numbers after ± are expanded uncertainties.
Test: xn = mol fraction of the nth substance listed
Conditions: 100 kPa, Liquid; for viscosity: Falling or rolling sphere viscometry; for mass density: Vibrating tube method

CCCC[N+](CC)(CC)CC.[Br-] [butyltriethyl ammonium bromide] + O
Conditions	mass density [kg/m3]	viscosity [mPa·s]
298.15 K, x1 = 0.02	1030.2 ± 1	1.581 ± 0.096
298.15 K, x1 = 0.04	1057.3 ± 1	2.599 ± 0.16
298.15 K, x1 = 0.06	1078.8 ± 1	4.044 ± 0.24
298.15 K, x1 = 0.08	1095.3 ± 1	5.87 ± 0.35
298.15 K, x1 = 0.105	1111 ± 1	10.02 ± 0.61
298.15 K, x1 = 0.13	1122.8 ± 1.1	14.11 ± 0.85
298.15 K, x1 = 0.16	1133.5 ± 1.1	21.36 ± 1.3
298.15 K, x1 = 0.189	1140.9 ± 1.1	30.66 ± 1.9
298.15 K, x1 = 0.22	1147.3 ± 1.1	43.63 ± 2.6
298.15 K, x1 = 0.253	1152.5 ± 1.2	63.73 ± 3.9
303.15 K, x1 = 0.02	1028.2 ± 1	1.381 ± 0.083
303.15 K, x1 = 0.04	1054.7 ± 1	2.216 ± 0.13
303.15 K, x1 = 0.06	1075.6 ± 1	3.393 ± 0.2
303.15 K, x1 = 0.08	1091.9 ± 1	4.835 ± 0.29
303.15 K, x1 = 0.105	1107.4 ± 1	8.222 ± 0.5
303.15 K, x1 = 0.13	1119.1 ± 1.1	11.45 ± 0.69
303.15 K, x1 = 0.16	1129.8 ± 1.1	16.85 ± 1
303.15 K, x1 = 0.189	1137.3 ± 1.1	23.62 ± 1.4
303.15 K, x1 = 0.22	1143.7 ± 1.1	33 ± 2
303.15 K, x1 = 0.253	1148.9 ± 1.2	47.05 ± 2.9
308.15 K, x1 = 0.02	1026 ± 1	1.223 ± 0.074
308.15 K, x1 = 0.04	1051.9 ± 1	1.921 ± 0.12
308.15 K, x1 = 0.06	1072.5 ± 1	2.885 ± 0.17
308.15 K, x1 = 0.08	1088.4 ± 1	4.054 ± 0.24
308.15 K, x1 = 0.105	1103.8 ± 1	6.767 ± 0.41
308.15 K, x1 = 0.13	1115.4 ± 1	9.328 ± 0.56
308.15 K, x1 = 0.16	1126.1 ± 1.1	13.49 ± 0.82
308.15 K, x1 = 0.189	1133.6 ± 1.1	18.55 ± 1.1
308.15 K, x1 = 0.22	1140.1 ± 1.1	25.39 ± 1.5
308.15 K, x1 = 0.253	1145.4 ± 1.2	35.52 ± 2.2
313.15 K, x1 = 0.02	1023.6 ± 1	1.091 ± 0.066
313.15 K, x1 = 0.04	1049.1 ± 1	1.682 ± 0.1
313.15 K, x1 = 0.06	1069.2 ± 1	2.488 ± 0.15
313.15 K, x1 = 0.08	1084.9 ± 1	3.441 ± 0.21
313.15 K, x1 = 0.105	1100.2 ± 1	5.583 ± 0.34
313.15 K, x1 = 0.13	1111.7 ± 1	7.649 ± 0.46
313.15 K, x1 = 0.16	1122.4 ± 1.1	10.91 ± 0.66
313.15 K, x1 = 0.189	1129.9 ± 1.1	14.79 ± 0.9
313.15 K, x1 = 0.22	1136.5 ± 1.1	19.92 ± 1.2
313.15 K, x1 = 0.253	1141.9 ± 1.2	27.22 ± 1.7
318.15 K, x1 = 0.02	1021 ± 1	0.981 ± 0.059
318.15 K, x1 = 0.04	1046.1 ± 1	1.485 ± 0.09
318.15 K, x1 = 0.06	1065.9 ± 1	2.164 ± 0.13
318.15 K, x1 = 0.08	1081.4 ± 1	2.942 ± 0.18
318.15 K, x1 = 0.105	1096.5 ± 1	4.648 ± 0.28
318.15 K, x1 = 0.13	1108 ± 1	6.334 ± 0.38
318.15 K, x1 = 0.16	1118.7 ± 1.1	8.969 ± 0.54
318.15 K, x1 = 0.189	1126.2 ± 1.1	12.07 ± 0.73
318.15 K, x1 = 0.22	1132.8 ± 1.1	15.94 ± 0.97
318.15 K, x1 = 0.253	1138.3 ± 1.2	21.51 ± 1.3
323.15 K, x1 = 0.02	1018.3 ± 1	0.889 ± 0.054
323.15 K, x1 = 0.04	1042.9 ± 1	1.324 ± 0.08
323.15 K, x1 = 0.06	1062 ± 1	1.906 ± 0.12
323.15 K, x1 = 0.08	1077.8 ± 1	2.567 ± 0.15
323.15 K, x1 = 0.105	1092.8 ± 1	3.92 ± 0.24
323.15 K, x1 = 0.13	1104.2 ± 1	5.293 ± 0.32
323.15 K, x1 = 0.16	1115 ± 1.1	7.453 ± 0.45
323.15 K, x1 = 0.189	1122.5 ± 1.1	9.912 ± 0.6
323.15 K, x1 = 0.22	1129.2 ± 1.1	12.97 ± 0.79
323.15 K, x1 = 0.253	1134.7 ± 1.2	17.19 ± 1.1
328.15 K, x1 = 0.02	1015.8 ± 1	0.812 ± 0.049
328.15 K, x1 = 0.04	1039.9 ± 1	1.189 ± 0.072
328.15 K, x1 = 0.06	1059.1 ± 1	1.69 ± 0.1
328.15 K, x1 = 0.08	1074.2 ± 1	2.252 ± 0.14
328.15 K, x1 = 0.105	1089.1 ± 1	3.358 ± 0.2
328.15 K, x1 = 0.13	1100.5 ± 1	4.483 ± 0.27
328.15 K, x1 = 0.16	1111.2 ± 1.1	6.266 ± 0.38
328.15 K, x1 = 0.189	1118.8 ± 1.1	8.29 ± 0.5
328.15 K, x1 = 0.22	1125.6 ± 1.1	10.76 ± 0.65
328.15 K, x1 = 0.253	1131.2 ± 1.2	14.11 ± 0.86
333.15 K, x1 = 0.02	1013.01 ± 1	0.75 ± 0.045
333.15 K, x1 = 0.04	1036.64 ± 1	1.077 ± 0.065
333.15 K, x1 = 0.06	1055.6 ± 1	1.514 ± 0.092
333.15 K, x1 = 0.08	1070.54 ± 1	1.996 ± 0.12
333.15 K, x1 = 0.105	1085.3 ± 1	2.937 ± 0.18
333.15 K, x1 = 0.13	1096.66 ± 1.1	3.847 ± 0.23
333.15 K, x1 = 0.16	1107.44 ± 1.1	5.319 ± 0.32
333.15 K, x1 = 0.189	1115.11 ± 1.1	7.032 ± 0.43
333.15 K, x1 = 0.22	1121.89 ± 1.1	9.062 ± 0.55
333.15 K, x1 = 0.253	1127.56 ± 1.2	11.8 ± 0.72
338.15 K, x1 = 0.02	1010 ± 1	0.7 ± 0.042
338.15 K, x1 = 0.04	1033.3 ± 1	0.999 ± 0.06
338.15 K, x1 = 0.06	1052 ± 1	1.363 ± 0.082
338.15 K, x1 = 0.08	1066.8 ± 1	1.781 ± 0.11
338.15 K, x1 = 0.105	1081.5 ± 1	2.425 ± 0.15
338.15 K, x1 = 0.13	1092.8 ± 1	3.339 ± 0.2
338.15 K, x1 = 0.16	1103.7 ± 1.1	4.555 ± 0.28
338.15 K, x1 = 0.189	1111.4 ± 1.1	5.982 ± 0.36
338.15 K, x1 = 0.22	1118.2 ± 1.1	7.687 ± 0.47
338.15 K, x1 = 0.253	1124 ± 1.2	9.932 ± 0.6
343.15 K, x1 = 0.02	1006.6 ± 1	0.655 ± 0.04
343.15 K, x1 = 0.04	1029.5 ± 1	0.922 ± 0.056
343.15 K, x1 = 0.06	1048.4 ± 1	1.233 ± 0.075
343.15 K, x1 = 0.08	1063.1 ± 1	1.601 ± 0.097
343.15 K, x1 = 0.105	1077.7 ± 1	2.156 ± 0.13
343.15 K, x1 = 0.13	1089 ± 1	2.959 ± 0.18
343.15 K, x1 = 0.16	1099.8 ± 1.1	3.974 ± 0.24
343.15 K, x1 = 0.189	1107.6 ± 1.1	5.163 ± 0.31
343.15 K, x1 = 0.22	1114.6 ± 1.1	6.602 ± 0.4
343.15 K, x1 = 0.253	1120.3 ± 1.2	8.504 ± 0.52
348.15 K, x1 = 0.02	1003.4 ± 1	0.608 ± 0.037
348.15 K, x1 = 0.04	1026.5 ± 1	0.876 ± 0.053
348.15 K, x1 = 0.06	1044.7 ± 1	1.124 ± 0.068
348.15 K, x1 = 0.08	1059.3 ± 1	1.446 ± 0.087
348.15 K, x1 = 0.105	1073.8 ± 1	1.931 ± 0.12
348.15 K, x1 = 0.13	1085.1 ± 1	2.658 ± 0.16
348.15 K, x1 = 0.16	1096 ± 1.1	3.489 ± 0.21
348.15 K, x1 = 0.189	1103.8 ± 1.1	4.485 ± 0.27
348.15 K, x1 = 0.22	1110.8 ± 1.1	5.702 ± 0.35
348.15 K, x1 = 0.253	1116.7 ± 1.2	7.325 ± 0.45

Reference: the NIST ThermoML archive (doi:10.1016/j.tca.2018.11.018)
